According to PMC9180903, “Substituted Syndecan-2-Derived Mimetic Peptides Show Improved Antitumor Activity over the Parent Syndecan-2-Derived Peptide” (International Journal of Molecular Sciences, 2022):
Ends that are not written are not given here.

T1: pro-domain of MMP-7 (PDMMP-7) (Homo sapiens, UniProt P09237)
T1 construct: TRX-His tag (N, cleaved yes); made in house
T1 sequence (P09237 18-94 limits assumed): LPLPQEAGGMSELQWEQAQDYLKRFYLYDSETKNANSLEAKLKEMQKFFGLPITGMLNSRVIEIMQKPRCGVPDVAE

T2: pro-domain of matrix metalloproteinase-7 (MMP-7)
T2 sequence (P09237 whole entry, species assumed, looked up): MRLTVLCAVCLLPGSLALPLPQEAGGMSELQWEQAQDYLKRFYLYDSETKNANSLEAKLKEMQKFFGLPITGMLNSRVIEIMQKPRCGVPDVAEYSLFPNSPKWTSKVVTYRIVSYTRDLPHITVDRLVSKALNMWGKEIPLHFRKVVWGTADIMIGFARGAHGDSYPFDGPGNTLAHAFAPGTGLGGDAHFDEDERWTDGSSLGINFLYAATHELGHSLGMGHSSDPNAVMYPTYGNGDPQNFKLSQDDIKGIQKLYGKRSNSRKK


Assays:
[1] = biological target: T1, pro-domain of MMP-7 (PDMMP-7); test: Fluorescence titration of peptides against MMP-7 pro-domain; type: binding; conditions: fluorescence spectroscopy; for Kd: ex 280 nm, em 347 nm, 10 μM PDMMP-7, peptide titrated up to 1:80, PBS pH 7.4, 25 °C
Description: The gene encoding the pro-domain sequence (PDMMP-7) was cloned into the pET32a vector, which has a TRX-His tag at the N-terminus, for protein expression and purification. Between the TRX-His tag and the pro-domain, a TEV cleavage sequence was inserted. Proteins were overexpressed with 1 mM IPTG and isolated using Ni-NTA affinity chromatography. The purified TRX-His tag-PDMMP-7 was incubated with TEV protease at a 1:1 molar ratio for 12 h. The reaction mixture was further purified in phosphate-buffered saline (PBS) buffer at pH 7.4 using a HiLoad^TM superdex^TM 75 column (GE Healthcare, Little Chalfont, UK) to remove tags. The final protein sample was concentrated to 14 mg/mL for the fluorescence experiment.
The binding affinity between the PDMMP-7 and each synthetic peptide was measured at 298 K (25 °C) using an LS55 fluorescence spectrophotometer (Perkin Elmer, Waltham, MA, USA) at wavelengths of 280 nm (excitation) and 300–450 nm (emission). PDMMP-7 and peptides were prepared in phosphate-buffered saline (PBS) buffer at pH 7.4. The concentration of PDMMP-7 was set at 10 μM, and the input amount of each peptide versus PDMMP-7 was titrated at a molar ratio up to 1:80 using a thermostat cuvette. The dissociation constant (Kd) of the PDMMP-7/peptide complex was calculated using the equation log[(Fo − F)/F] = log(1/Kd) + nlog[ligand], where Fo and F represent the fluorescence intensity of PDMMP-7 at 347 nm in the absence and presence of the peptide, respectively, and n represents the number of binding sites.

[2] = tested on: HCT116 cells; test: MTT assay; type: cell-based, human; conditions: 50 nM peptide
Description: (§1) Cell proliferation was measured by a colorimetric assay using 3-(4,5-dimethythiazol-2-yl) 2,5-diphenyltetrazolium bromide (MTT; Amresco, Solon, OH, USA) according to the manufacturer’s instructions. Briefly, cells were harvested with 0.05% trypsin/EDTA and seeded to 48-well plates (Thermo Fisher Scientific). After cells were allowed to attach to the plate for 24 h, medium containing 0.5 mg/mL MTT was added to each plate and incubation was continued for 1 h. The medium was then removed, and 200 μL of dimethyl sulfoxide (DMSO) was added to each plate for 30 min at room temperature. The mean concentration of absorbance at 570 nm in each set of samples was measured using a 96-well microtiter plate reader (Dynatech, Chantilly, VA, USA).

[3] = tested on: HT29-SDC2 cells; test: MTT assay; type: cell-based, human; conditions: 50 nM, up to 48 h
Description: as §1

[4] = tested on: MMPs; design: method as in PMID 29735645, PMID 9484924, PMID 10100701, PMID 12085177; conditions: batimastat phase I, marimastat phase III; cited from earlier work
[5] = biological target: T2, pro-domain of matrix metalloproteinase-7 (MMP-7); test: other fluorescence titration; intrinsic fluorescence of PDMMP-7 (10 μM; excitation 280 nm, emission 300-450 nm, read at 347 nm), peptide titrated up to a molar ratio of 1:80, PBS pH 7.4, 298 K (25 °C)

Row | Molecule | Kd [1] | Kd [5] | other results
1 | SGVYPIDDLDYASASGSGAD [S2-L, modified SDC2-mimetic peptide derived from S2-P] |  |  | binding to the MMP-7 pro-domain compared to S2-P ([1]; PBS pH 7.4, 25 °C): reduced binding
2 | SGVYPIDDDDYDSASGSGAD [S2-D] | 550 µM |  | cytotoxicity in HCT116 cells [2]: did not exert cytotoxicity; cytotoxicity against HT29-SDC2 cells [3]: Neither peptide showed cytotoxicity
3 | CNC(=O)[C@@H](NC(=O)[C@H](CC(C)C)[C@H](O)C(=O)NO)C(C)(C)C [marimastat] |  |  | side effects in clinical trials [4]: significant musculoskeletal toxicity
4 | SGVYPIDDDDYDSASGSGAD [S2-D, SDC2-mimetic peptide with an Ala-to-Asp substitution at the C-terminal side of Tyr 51] |  | 550 µM | 
5 | SGVYPIDDFDYESASGSGAD [S2-FE, SDC2-mimetic peptide] |  | 456 µM | 
6 | SGVYPIFDLDYDSASGSGAD [S2-FLD, SDC2-mimetic peptide] |  | 64 µM | 
7 | SGVYPIDDDDYASASGSGAD [S2-P, synthetic peptide corresponding to human SDC2 extracellular domain residues 41-60] |  | 1220 µM | 

Further lines, with some results ahead:

Row | Kd [1] | Kd [5] | Molecule | other results
8 | 1220 µM |  | SGVYPIDDDDYASASGSGAD [S2-P] | 
9 | 64 µM |  | SGVYPIFDLDYDSASGSGAD [S2-FLD] | 
10 | 456 µM |  | SGVYPIDDFDYESASGSGAD [S2-FE] | cytotoxicity in HCT116 cells [2]: did not exert cytotoxicity; cytotoxicity against HT29-SDC2 cells [3]: Neither peptide showed cytotoxicity
